Data set [1] can be described thus: Solid form transformation while stirred in organic solvent (slurry). It is filed as physicochemical. As to conditions: stirred in an organic solvent for more than about 2 days, e.g. dichloromethane and optionally heptane. The text has this: The various forms are related in that one form may transform to another while in an organic solvent, such as a slurry resulting from crystallization. […] Such transformation occurs for example in a reaction mixture containing dichloromethane and optionally a C5 to C12 hydrocarbon such as heptane.

A short description of data set [2]: Solid form transformation on drying. It is filed as physicochemical. As to conditions: drying under heating, preferably 50 C. overnight under vacuum, about 10-100 mm Hg; monosodium salt. As to the method: The various forms are related in that drying of one form may lead to another form. Drying may be carried out under ambient or reduced pressure under heating. The temperature during heating is preferably about 40° C. to about 60° C., more preferably about 40° C. to about 50° C. The drying for a few days, such as about two days may be sufficient for transformation. In a preferred embodiment, drying is performed at 50C. overnight under vacuum, about 10-100 mm Hg.
Some solutions were stirred at room temperature; others were heated to the indicated temperature. The precipitate was recovered by filtration and washed with the solvent (5 mL) to obtain a wet sample. A portion of the wet sample was dried overnight in a vacuum at 50° C. at 10-50 mm Hg to obtain a dry sample. The wet and dry samples were analyzed by X-ray diffraction.

The conditions of data set [3]: powder; cited from earlier work.

Turning to `CC(C)(O)c1ccccc1CC[C@@H](SCC1(CC(=O)[O-])CC1)c1cccc(/C=C/c2ccc3ccc(Cl)cc3n2)c1.[Na+]` [Form B1, [R-(E)]-1-[[[1-[3-[2-(7-chloro-2-quinolinyl)ethenyl]phenyl]-3-[2-(1-hydroxy-1-methylethyl)phenyl]propyl]thio]methyl]cyclopropaneacetic acid, monosodium salt], the “form transformation in organic solvent” value in data set [1] is “transforms to Form C”. The “form obtained on drying” value in data set [2] was “Form C”.

Take `CC(C)(O)c1ccccc1CC[C@@H](SCC1(CC(=O)[O-])CC1)c1cccc(/C=C/c2ccc3ccc(Cl)cc3n2)c1.[Na+]` [Montelukast sodium, [R-(E)]-1-[[[1-[3-[2-(7-chloro-2-quinolinyl)ethenyl]phenyl]-3-[2-(1-hydroxy-1-methylethyl)phenyl]propyl]thio]methyl]cyclopropaneacetic acid, monosodium salt]: in data set [3], the hygroscopicity entry is “hygroscopic”. As to `CC(C)(O)c1ccccc1CC[C@@H](SCC1(CC(=O)[O-])CC1)c1cccc(/C=C/c2ccc3ccc(Cl)cc3n2)c1.[Na+]` [Form B2, [R-(E)]-1-[[[1-[3-[2-(7-chloro-2-quinolinyl)ethenyl]phenyl]-3-[2-(1-hydroxy-1-methylethyl)phenyl]propyl]thio]methyl]cyclopropaneacetic acid, monosodium salt], the “form obtained on drying” value in data set [2] is “Form B1 or form C”.

The values are drawn from patent publication US20050187244A1 (Entire Interest., priority 2004, published 2005).
